According to patent US20230173032A1, “Treatment of Hyperuricemia” (Frederiksberg Hospital, priority 2020, published 2023):

Tests used:
[1] = Semaglutide case studies: treatment emergent adverse events; assay type: in vivo, human
Procedure: Two patients with chronic gout and no diabetes where treated with another type of GLP-1 analog: Semaglutide subcutaneous (sc) once weekly.
Person, gout since more than 3 years no diabetes. Received 0.25 mg weekly for 6 weeks and then 0.5 mg twice.
Person, gout since more than 4 years, no diabetes. Received 0.25 mg sc for 6 weeks and 0.5 mg sc for 4 weeks.

[2] = LOSE-IT trial (NCT02905864): serious adverse events and deaths; assay type: in vivo, human; details: liraglutide 3 mg/day, 52 weeks
Procedure: Methods: In the LOSE-IT trial (NCT02905864), a randomised, double-blinded, placebo-controlled, parallel group, single-centre trial, 156 overweight and obese individuals with knee joint pain, were offered an initial 8-week intensive diet intervention (week −8 to 0) on Cambridge Weight Plan (800-1000 kcal/day) followed by a weight loss maintenance period in which participants were randomised to either liraglutide 3 mg/day or placebo for 52 weeks. Subjects with type 1 diabetes or type 2 diabetes with glucose-lowering drugs other than metformin were excluded from the study.

SMILES	treatment emergent adverse events, Patient 1 ([1]; 8 weeks treatment, nausea during the first 2 weeks)	treatment emergent adverse events, Patient 2 ([1]; 10 weeks treatment)	deaths [2]	participants who experienced serious adverse events [2]
CC[C@H](C)[C@H](NC(=O)[C@H](Cc1ccccc1)NC(=O)[C@H](CCC(=O)O)NC(=O)[C@H](CCCCNC(=O)COCCOCCNC(=O)COCCOCCNC(=O)CC[C@H](NC(=O)CCCCCCCCCCCCCCCCC(=O)O)C(=O)O)NC(=O)[C@H](C)NC(=O)[C@H](C)NC(=O)[C@H](CCC(N)=O)NC(=O)CNC(=O)[C@H](CCC(=O)O)NC(=O)[C@H](CC(C)C)NC(=O)[C@H](Cc1ccc(O)cc1)NC(=O)[C@H](CO)NC(=O)[C@H](CO)NC(=O)[C@@H](NC(=O)[C@H](CC(=O)O)NC(=O)[C@H](CO)NC(=O)[C@@H](NC(=O)[C@H](Cc1ccccc1)NC(=O)[C@@H](NC(=O)CNC(=O)[C@H](CCC(=O)O)NC(=O)C(C)(C)NC(=O)[C@@H](N)Cc1cnc[nH]1)[C@@H](C)O)[C@@H](C)O)C(C)C)C(=O)N[C@@H](C)C(=O)N[C@@H](Cc1c[nH]c2ccccc12)C(=O)N[C@@H](CC(C)C)C(=O)N[C@H](C(=O)N[C@@H](CCCNC(=N)N)C(=O)NCC(=O)N[C@@H](CCCNC(=N)N)C(=O)NCC(=O)O)C(C)C [Semaglutide]	No treatment emergent adverse events were experienced apart from slight nausea	No treatment emergent adverse events were experienced apart from slight constipation	–	–
CCCCCCCCCCCCCCCC(=O)N[C@@H](CCC(=O)NCCCC[C@H](NC(=O)[C@H](C)NC(=O)[C@H](C)NC(=O)[C@H](CCC(N)=O)NC(=O)CNC(=O)[C@H](CCC(=O)O)NC(=O)[C@H](CC(C)C)NC(=O)[C@H](Cc1ccc(O)cc1)NC(=O)[C@H](CO)NC(=O)[C@H](CO)NC(=O)[C@@H](NC(=O)[C@H](CC(=O)O)NC(=O)[C@H](CO)NC(=O)[C@@H](NC(=O)[C@H](Cc1ccccc1)NC(=O)[C@@H](NC(=O)CNC(=O)[C@H](CCC(=O)O)NC(=O)[C@H](C)NC(=O)[C@@H](N)Cc1cnc[nH]1)[C@@H](C)O)[C@@H](C)O)C(C)C)C(=O)N[C@@H](CCC(=O)O)C(=O)N[C@@H](Cc1ccccc1)C(=O)N[C@H](C(=O)N[C@@H](C)C(=O)N[C@@H](Cc1c[nH]c2ccccc12)C(=O)N[C@@H](CC(C)C)C(=O)N[C@H](C(=O)N[C@@H](CCCNC(=N)N)C(=O)NCC(=O)N[C@@H](CCCNC(=N)N)C(=O)NCC(=O)O)C(C)C)[C@@H](C)CC)C(=O)O [liraglutide, Arg34, Lys26-(N-epsilon-(gamma-L-glutamyl(N-alfa-hexadecanoyl)))-GLP-I(7-37)]	–	–	no deaths were observed	Four
